# Laboratory results reported in patent publication US20040138315A1 (priority 2000, published 2004).
# Key:
# [1] = test system: adenosine diphosphate-induced aggregation of platelet rich plasma (ADP receptor); test: Adenosine diphosphate, platelet aggregation (404010); assay type: cell-based, rabbit; conditions: for ANT. (antagonist response), ADP platelet aggregation / AG. (agonist response), ADP platelet aggregation: 30 μM, platelet rich plasma, rabbit; for AG. (agonist response), ADP platelet aggregation: relative to […] ADP
# Description: (§1) Test compounds referred to above were evaluated for inhibition of platelet aggregation induced by adenosine diphosphate, arachidonic acid, phorbol ester and Platelet Activating Factor (PAF) at […]. The following methods were employed in this analysis, and reference compounds for the respective assays are indicated in Appendix 1:
# Venous blood obtained from male or female New Zealand derived albino rabbits weighing 2.5-3 kg was mixed with one-tenth volume of trisodium citrate (0.13 M) and centrifuged at room temperature for 10 min at 220 g. Test substance (30 EM)-induced aggregation of the supernatant platelet rich plasma by 50 percent or more (>50%) more relative to 1.2 μM adenosine diphosphate control response at 37° C. as mearsured by an optical aggregometer, indicates possible ADP receptor agonist activity.
# At a test substance concentration where no significant agonist activity is seen, ability to reduce the adenosine diphosphate-induced maximum non-reversible aggregation response by 50 percent or more (≧50%) was indicative of ADP receptor antagonist activity.
# Cannabinoid CB1 = biological target: T1, Cannabinoid CB1 (Mus musculus, UniProt P47746); test: Cannabinoid CB1 tissue assay, vas deferens (416000); assay type: cell-based
# T1 construct: tissue 416000; host or cells: vas deferens
# T1 sequence (P47746 whole entry): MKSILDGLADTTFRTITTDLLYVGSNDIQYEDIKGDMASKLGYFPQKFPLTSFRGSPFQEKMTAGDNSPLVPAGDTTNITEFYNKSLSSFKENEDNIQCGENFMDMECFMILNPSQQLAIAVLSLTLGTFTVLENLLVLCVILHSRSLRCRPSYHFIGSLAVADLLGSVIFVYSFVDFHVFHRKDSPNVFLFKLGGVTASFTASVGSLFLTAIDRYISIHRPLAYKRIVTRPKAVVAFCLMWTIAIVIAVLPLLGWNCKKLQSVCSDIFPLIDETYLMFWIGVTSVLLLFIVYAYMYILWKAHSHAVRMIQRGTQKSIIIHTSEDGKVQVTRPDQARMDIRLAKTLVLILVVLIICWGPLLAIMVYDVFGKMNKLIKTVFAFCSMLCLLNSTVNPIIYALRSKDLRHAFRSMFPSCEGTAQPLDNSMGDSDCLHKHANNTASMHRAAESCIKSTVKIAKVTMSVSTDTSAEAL
# [2] = test system: arachidonic acid-induced aggregation of platelet rich plasma; test: Arachidonic acid, platelet aggregation (412510); assay type: cell-based, rabbit; conditions: for ANT. (antagonist response), arachidonic acid platelet aggregation / AG. (agonist response), arachidonic acid platelet aggregation: 30 μM, platelet rich plasma, rabbit; for AG. (agonist response), arachidonic acid platelet aggregation: relative to 100 μM arachidonic acid
# Description: as §1
# Venous blood obtained from male or female New Zealand derived albino rabbits weighting 2.5-3 kg was mixed with one-tenth volume of trisodeium citrate (0.13M) and centrifuged at room temperature for 10 min at 220 g. Test substance (30 μM)-induced aggregation of the supernatant platelet rich plasma by 50 percent or more (≧50%) within 5 min, relative to 100 μM arachidonic acid response at 37° C. as measured by an optical aggregometer indicates possible agonist activity.
# At a test substance concentration where no significant agonist activity is seen, ability to reduce the arachidonic acid-induced maximum non-reversible aggregation response by 50 percent or more (>50%) was indicative of antagonist activity.
# cyclooxygenase COX-1 = biological target: T2, cyclooxygenase COX-1 (Homo sapiens, UniProt P23219); test: Cyclooxygenase COX-1 inhibition in human platelets, PGE2 EIA (116010); assay type: cell-based; conditions: screened at 10 μM
# T2 construct: host or cells: human platelets
# T2 sequence (P23219 24-599): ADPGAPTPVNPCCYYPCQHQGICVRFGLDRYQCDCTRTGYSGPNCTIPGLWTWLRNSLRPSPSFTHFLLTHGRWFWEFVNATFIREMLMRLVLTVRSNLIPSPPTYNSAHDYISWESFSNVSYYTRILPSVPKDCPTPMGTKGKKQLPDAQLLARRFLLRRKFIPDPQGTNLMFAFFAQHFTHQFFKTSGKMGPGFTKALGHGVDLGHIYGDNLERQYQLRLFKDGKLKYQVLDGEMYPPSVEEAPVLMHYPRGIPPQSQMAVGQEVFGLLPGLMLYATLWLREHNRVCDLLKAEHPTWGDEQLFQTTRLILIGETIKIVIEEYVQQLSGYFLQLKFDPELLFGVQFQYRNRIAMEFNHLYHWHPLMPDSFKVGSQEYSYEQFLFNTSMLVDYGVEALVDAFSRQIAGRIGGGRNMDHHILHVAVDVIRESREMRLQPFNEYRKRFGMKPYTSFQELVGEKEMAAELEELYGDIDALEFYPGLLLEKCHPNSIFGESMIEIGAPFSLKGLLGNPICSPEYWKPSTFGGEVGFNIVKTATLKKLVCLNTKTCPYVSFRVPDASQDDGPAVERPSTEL
# Description: In these assays, in addition to the designations set forth above, IG-05 refers to resorcinol and IG-06 refers to orcinol.
# To assess COX-1 inhibition, test compound and/or vehicle was incubated with human platelets (5×10^7/well) for 15 minutes at5 37° C. Calcium ionophore A23187 (10 μM) was added to induce the arachidonic acid cascade. After another 15 minutes incubation at 37° C., PGE2 levels in the supernatant were quantiated using the Amersham EIA kit. Compounds were screened at 10 μM.
# [3] = test system: PMA-induced aggregation of platelet rich plasma (phorbol ester receptor); test: Phorbol ester, platelet aggregation (461500); assay type: cell-based, rabbit; conditions: for ANT. (antagonist response), phorbol ester platelet aggregation / AG. (agonist response), phorbol ester platelet aggregation: 30 μM, platelet rich plasma, rabbit; for AG. (agonist response), phorbol ester platelet aggregation: relative to PMA 0.5 μM
# Description: as §1
# (§2) Venous blood obtained from male or female New Zealand derived albino rabbits weighing 2.5-3 kg is mixed with one-tenth volume of trisodium citrate (0.13 M) and centrifuged at room temperature for 10 min at 220 g. Test substance (30 μM)-induced aggregation of the supernatant platelet rich plasma by 50 percent or more (≧50%) within 5 min, relative to control phorbol myristate acetate (PMA, 0.5 μM) response at 37° C. as measured by an optical aggregometer, indicates possible phorbol ester receptor agonist activity.
# At a test substance concentration where no significant agonist activity is seen, ability to reduce the PMA (0.5 μM)-induced maximum non-reversible aggregation response by 50 percent or more (>50%) indicates phorbol ester receptor antagonist activity.
# [4] = test system: PAF-acether-induced aggregation of platelet rich plasma (PAF receptor); test: PAF, platelet aggregation (463010); assay type: cell-based, rabbit; conditions: for ANT. (antagonist response), PAF platelet aggregation / AG. (agonist response), PAF platelet aggregation: 30 μM, platelet rich plasma, rabbit; for AG. (agonist response), PAF platelet aggregation: relative to 5 nM PAF-acether
# Description: as §1
# as §2, with “temperture” for “temperature”, “Substance” for “substance”, “5 nM platelet activating factor-acether (PAF-acether)” for “phorbol myristate acetate (PMA, 0.5 μM)”, “37[…]” for “37° C.”, “PAF” for “phorbol ester”
# At a test substance concentration where no significant agonist activity is seen, ability to reduce the PAF-acether-induced maximum non-reversible aggregation response by 50 percent or more (≧50%) indicates PAF receptor antagonist activity.
smiles,measurement,setting,value
"Nc1nc(Cl)nc2c1ncn2[C@@H]1O[C@H](CO)[C@@H](O)[C@H]1O [2-Chloroadenosine, reference compound]","Concurrent RESP., reference compound, ADP platelet aggregation - Antagonist","[1]; 10 μM, batch 27737",90
"CCCCC/C=C\C/C=C\C/C=C\C/C=C\CCCC(=O)NCCO [Anandamide, reference compound]","Concurrent RESP., reference compound, Cannabinoid CB1 - Agonist","Cannabinoid CB1; 0.1 μM, batch 27098",100
"CCCCC/C=C\C/C=C\C/C=C\C/C=C\CCCC(=O)O [Arachidonic Acid, reference compound]","Concurrent RESP., reference compound, arachidonic acid platelet aggregation - Agonist","[2]; 100 μM, batch 27731",100
"COc1cc(C(C)(C)CCCC(C)C)cc(OC)c1O [IG-2, 4-(1,1,5-trimethylhexyl)-2,6-dimethoxyphenol]",COX-1 inhibition (in words),cyclooxygenase COX-1,potent inhibitors of COX-1
"Cc1cc(O)cc(O)c1 [IG-6, orcinol]",COX-1 inhibition (in words),cyclooxygenase COX-1,potent inhibitors of COX-1
"COc1cc(C(C)(C)CCCC(C)C)cc(OC)c1OC [IG-7, 1-(1,1,5-Trimethylhexyl)-3,4,5-trimethoxybenzene]","ANT. (antagonist response), phorbol ester platelet aggregation",[3],9%
same,"AG. (agonist response), phorbol ester platelet aggregation",[3],0%
same,"ANT. (antagonist response), PAF platelet aggregation",[4],4%
same,"AG. (agonist response), PAF platelet aggregation",[4],0%
same,"AG. (agonist response), Cannabinoid CB1",Cannabinoid CB1; 30 μM,−106%
same,"ANT. (antagonist response), Cannabinoid CB1",Cannabinoid CB1; 30 μM,100%
same,"ANT. (antagonist response), ADP platelet aggregation",[1],11%
same,"AG. (agonist response), ADP platelet aggregation",[1],0%
same,"ANT. (antagonist response), arachidonic acid platelet aggregation",[2],0%
same,"AG. (agonist response), arachidonic acid platelet aggregation",[2],0%
"CC1=CCC2C(C1)c1c(O)cc(C(C)(C)CCCC(C)C)cc1OC2(C)C (stereo not shown) [IG-9, 3-Norpentyl-3-(1,1,5-trimethylhexyl)-Δ 8-tetrahydrocannabinol]","ANT. (antagonist response), phorbol ester platelet aggregation",[3],4%
same,"AG. (agonist response), phorbol ester platelet aggregation",[3],0%
same,"ANT. (antagonist response), PAF platelet aggregation",[4],4%
same,"AG. (agonist response), PAF platelet aggregation",[4],0%
same,"ANT. (antagonist response), ADP platelet aggregation",[1],7%
same,"AG. (agonist response), ADP platelet aggregation",[1],0%
same,"ANT. (antagonist response), arachidonic acid platelet aggregation",[2],0%
same,"AG. (agonist response), arachidonic acid platelet aggregation",[2],0%
"COc1ccc2c(c1)c(CC(=O)O)c(C)n2C(=O)c1ccc(Cl)cc1 [Indomethacin, reference compound]","Concurrent RESP., reference compound, arachidonic acid platelet aggregation - Antagonist","[2]; 0.3 μM, batch 27731",100
"CCCCCCCCCCCCCCCCOC[C@H](COP(=O)([O-])OCC[N+](C)(C)C)OC(C)=O [PAF, platelet activating factor-acether, reference compound]","Concurrent RESP., reference compound, PAF platelet aggregation - Agonist","[4]; 5 nM, batch 27927",100
"CCCCCCCCCCCCCC(=O)O[C@@H]1[C@@H](C)[C@@]2(O)[C@@H](C=C(CO)C[C@]3(O)C(=O)C(C)=C[C@@H]23)[C@@H]2C(C)(C)[C@]12OC(C)=O [PMA, phorbol myristate acetate, reference compound]","Concurrent RESP., reference compound, phorbol ester platelet aggregation - Agonist","[3]; 0.5 μM, batch 27699",100
"CN[C@@H]1C[C@H]2O[C@@](C)([C@@H]1OC)n1c3ccccc3c3c4c(c5c6ccccc6n2c5c31)C(=O)NC4 [Staurosporine, reference compound]","Concurrent RESP., reference compound, phorbol ester platelet aggregation - Antagonist","[3]; 3 μM, batch 27699",100
"Cc1nnc2n1-c1sc(CCC(=O)N3CCOCC3)cc1C(c1ccccc1Cl)=NC2 [WEB-2086, reference compound]","Concurrent RESP., reference compound, PAF platelet aggregation - Antagonist","[4]; 0.3 μM, batch 27927",97
